14 compounds from paper PMC11721672, “Design, Structure–Activity Relationships, and Computational Modeling Studies of a Series of α-Helix Biased, Ultra-Short Glucagon-like Peptide-1 Receptor Agonists” (Molecules, 2024) can be followed below.

pEC50: −log10 of the molar value. Read-outs that look alike come from different tables or passages of the source. Square brackets hold non-standard residues; d marks the D form. Peptide text beside a SMILES is read from it. Bip = N[C@@H](Cc1ccc(-c2ccccc2)cc1)C(=O)O; αMePhe(2-F) = C[C@](N)(Cc1ccccc1F)C(=O)O; Phe(2-F) = N[C@@H](Cc1ccccc1F)C(=O)O; Aib = CC(C)(N)C(=O)O Where only a bound is given, the exact number is not on record here.

The assay addresses T1, hGLP1 receptor (Homo sapiens, UniProt P43220).
T1 construct: expressed in transfected cells; host or cells: HEK (human embryonic kidney) cells co-expressing hGLP1 receptor and CRE-Luciferase
The experiment in a line: GLP-1 receptor agonism assay (HTRF cAMP, HEK cells co-expressing hGLP1 receptor and CRE-Luciferase). It counts as cell-based. To be noted: for Emax: HEK293, Table 6 potency profile; for pEC50 / EC50: 0% HSA; for pEC50: read-out: cAMP EC50; for EC50: Table 4, Ala-scan peptides, read-out: pEC50 (converted); for decreased potency by Ala substitution in RXL-3000: Ala-scanning, versus RXL-3000; for decreased potency (Aib/Ala comparison): versus respective parent analog. The procedure:
Human embryonic kidney cells (HEK) co-expressing the hGLP1 receptor and CRE-Luciferase construct were used to determine agonist potency in this assay. The cells were thawed briefly at 37 °C, transferred to a sterile tube, and re-suspended in complete media at 37 °C. Cells were centrifuged at 1000 rpm for 5 min and collected; the cells were then re-suspended in an assay buffer consisting of Dulbecco’s phosphate-buffered saline (DPBS, GIBCO) with 500 μM of the phosphodiesterase inhibitor 3-isobutyl-1-methylxanthine (IBMX). The assay medium had 0% serum albumin, as specified in Table 1, Table 2, Table 3 and Table 4. The optimal cell density was determined to be 1000 cells/well. Cells were added to wells in 384-well plates containing appropriate pre-prepared dilutions of compounds (test peptides or reference compound exendin-4), sealed, and incubated with CO2 for 30 min. Test peptide solutions were diluted from 10 mM stock solutions to be used in two separate runs (performed in triplicate) from a maximal concentration of 1.0 μM, with 11 concentrations tested for each peptide using serial 1:3 dilution from this maximal concentration. […] The agonist assay was a homogeneous time-resolved fluorescence (HTRF) assay (Cisbio). Following incubation of the cells for 30 min with test or reference peptides, 5 μL of the cAMP acceptor cAMP-d2, prepared previously as a working solution from frozen stock (1:20 dilution), was added to each well of the assay plate along with 5 μL of anti-cAMP antibody-cryptate working solution (diluted 1:20 from frozen stock). The wells were incubated for 1 h at room temperature, and fluorescence was then read at 665 and 615 nm with an Envision reader with a TRF laser. Data were saved and analyzed using Prism software (GraphPad). Concentration–response analysis was performed using 4-parameter logistic fits of the resulting data, and EC50 values were obtained for each test and reference compound.

Setting [1] is: Table 1, Phe6 modifications, average of two independent experiments in triplicate (RXL-3039 tested once).
[2] abbreviates: Table 2, Ala-scanning, >1000 nM = out of range.
Where [3] appears, read: Table 3, Aib-scanning, >1000 nM = out of range.

T1 sequence (P43220 24-463): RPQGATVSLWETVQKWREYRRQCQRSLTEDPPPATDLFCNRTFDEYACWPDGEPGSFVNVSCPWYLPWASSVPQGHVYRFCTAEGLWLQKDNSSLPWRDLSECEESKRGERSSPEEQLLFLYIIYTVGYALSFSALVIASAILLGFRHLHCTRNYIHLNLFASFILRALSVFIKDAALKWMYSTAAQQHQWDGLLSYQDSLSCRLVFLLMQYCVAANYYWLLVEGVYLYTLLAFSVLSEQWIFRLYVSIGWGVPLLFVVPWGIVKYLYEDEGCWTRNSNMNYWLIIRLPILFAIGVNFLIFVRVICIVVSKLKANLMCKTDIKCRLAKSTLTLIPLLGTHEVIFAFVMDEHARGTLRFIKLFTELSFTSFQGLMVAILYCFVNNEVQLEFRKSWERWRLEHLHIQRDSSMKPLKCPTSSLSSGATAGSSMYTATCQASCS

As a reminder, the Emax is the maximal effect, on the per cent scale that the assay sets. In general, pEC50 refers to the EC50 on a negative log10 scale, so that one unit is a factor of ten. Take `C[C@@H](O)[C@H](NC(=O)CNC(=O)[C@H](CCC(=O)O)NC(=O)C(C)(C)NC(=O)[C@@H](N)Cc1c[nH]cn1)C(=O)N[C@@H](Cc1ccccc1)C(=O)N[C@H](C(=O)N[C@@H](CO)C(=O)N[C@@H](CC(=O)O)C(=O)N[C@@H](Cc1ccc(-c2ccccc2)cc1)C(=O)N[C@@H](Cc1ccc(-c2ccccc2)cc1)C(N)=O)[C@@H](C)O` [RXL-100, His-Aib-Glu-Gly-Thr-Phe-Thr-Ser-Asp-Bip-Bip-NH2]: the Emax came to 110%. For the same compound, the pEC50 under setting [1] is 9.30. Besides, under setting [2], the pEC50 is 9.30. The pEC50 under setting [3] was 9.30.
`C[C@@H](O)[C@H](NC(=O)CNC(=O)[C@H](CCC(=O)O)NC(=O)C(C)(C)NC(=O)[C@@H](N)Cc1c[nH]cn1)C(=O)N[C@@](C)(Cc1ccccc1F)C(=O)N[C@H](C(=O)N[C@@H](CO)C(=O)N[C@@H](CC(=O)O)C(=O)N[C@@H](Cc1ccc(-c2ccccc2)cc1)C(=O)N[C@@H](Cc1ccc(-c2ccccc2)cc1)C(N)=O)[C@@H](C)O` [RXL-101, His-Aib-Glu-Gly-Thr-α-Me-Phe(2-F)-Thr-Ser-Asp-Bip-Bip-NH2] (H-H[Aib]EGT[αMePhe(2-F)]TSD[Bip][Bip]-NH2) had an Emax of 117%. Besides, the “Cα-methylation pEC50 contribution for position 6” value (pEC50 of RXL-101 minus pEC50 of RXL-3000) amounted to 0.97.
`C[C@@H](O)[C@H](NC(=O)CNC(=O)[C@H](CCC(=O)O)NC(=O)C(C)(C)NC(=O)[C@@H](N)Cc1c[nH]cn1)C(=O)N[C@@H](Cc1ccccc1F)C(=O)N[C@H](C(=O)N[C@@H](CO)C(=O)N[C@@H](CC(=O)O)C(=O)N[C@@H](Cc1ccc(-c2ccccc2)cc1)C(=O)N[C@@H](Cc1ccc(-c2ccccc2)cc1)C(N)=O)[C@@H](C)O` [RXL-3000, His-Aib-Glu-Gly-Thr-Phe(2-F)-Thr-Ser-Asp-Bip-Bip-NH2] gave an Emax of 109%. The pEC50 under setting [1] is 10.00. The pEC50 under setting [2] is 10.00. Under setting [3], the pEC50 was 10.00. Besides, the “GLP-1R agonist potency greater versus the parent peptide RXL-100” value (versus RXL-100) is given as “approximately fivefold”.
`C[C@H](N)C(=O)NC(C)(C)C(=O)N[C@@H](CCC(=O)O)C(=O)NCC(=O)N[C@H](C(=O)N[C@@H](Cc1ccccc1F)C(=O)N[C@H](C(=O)N[C@@H](CO)C(=O)N[C@@H](CC(=O)O)C(=O)N[C@@H](Cc1ccc(-c2ccccc2)cc1)C(=O)N[C@@H](Cc1ccc(-c2ccccc2)cc1)C(N)=O)[C@@H](C)O)[C@@H](C)O` [RXL-3001, Ala-Aib-Glu-Gly-Thr-Phe(2-F)-Thr-Ser-Asp-Bip-Bip-NH2]: the Emax is 108%. Besides, under setting [2], the pEC50 is 7.66.
On the same counts, the results for `C[C@H](NC(=O)[C@@H](N)Cc1c[nH]cn1)C(=O)N[C@@H](CCC(=O)O)C(=O)NCC(=O)N[C@H](C(=O)N[C@@H](Cc1ccccc1F)C(=O)N[C@H](C(=O)N[C@@H](CO)C(=O)N[C@@H](CC(=O)O)C(=O)N[C@@H](Cc1ccc(-c2ccccc2)cc1)C(=O)N[C@@H](Cc1ccc(-c2ccccc2)cc1)C(N)=O)[C@@H](C)O)[C@@H](C)O` [RXL-3002, His-Ala-Glu-Gly-Thr-Phe(2-F)-Thr-Ser-Asp-Bip-Bip-NH2] are 102% and 9.70.
On the same counts, the results for `C[C@H](NC(=O)C(C)(C)NC(=O)[C@@H](N)Cc1c[nH]cn1)C(=O)NCC(=O)N[C@H](C(=O)N[C@@H](Cc1ccccc1F)C(=O)N[C@H](C(=O)N[C@@H](CO)C(=O)N[C@@H](CC(=O)O)C(=O)N[C@@H](Cc1ccc(-c2ccccc2)cc1)C(=O)N[C@@H](Cc1ccc(-c2ccccc2)cc1)C(N)=O)[C@@H](C)O)[C@@H](C)O` [RXL-3003, His-Aib-Ala-Gly-Thr-Phe(2-F)-Thr-Ser-Asp-Bip-Bip-NH2] are 108% and 8.10.
For `C[C@H](NC(=O)CNC(=O)[C@H](CCC(=O)O)NC(=O)C(C)(C)NC(=O)[C@@H](N)Cc1c[nH]cn1)C(=O)N[C@@H](Cc1ccccc1F)C(=O)N[C@H](C(=O)N[C@@H](CO)C(=O)N[C@@H](CC(=O)O)C(=O)N[C@@H](Cc1ccc(-c2ccccc2)cc1)C(=O)N[C@@H](Cc1ccc(-c2ccccc2)cc1)C(N)=O)[C@@H](C)O` [RXL-3004, His-Aib-Glu-Gly-Ala-Phe(2-F)-Thr-Ser-Asp-Bip-Bip-NH2] (H-H[Aib]EGA[Phe(2-F)]TSD[Bip][Bip]-NH2), the Emax came out at 108% and the EC50 was 6.92 nM. Besides, the pEC50 under setting [2] is 8.11.
The like results for `C[C@H](NC(=O)[C@H](Cc1ccccc1F)NC(=O)[C@@H](NC(=O)CNC(=O)[C@H](CCC(=O)O)NC(=O)C(C)(C)NC(=O)[C@@H](N)Cc1c[nH]cn1)[C@@H](C)O)C(=O)N[C@@H](CO)C(=O)N[C@@H](CC(=O)O)C(=O)N[C@@H](Cc1ccc(-c2ccccc2)cc1)C(=O)N[C@@H](Cc1ccc(-c2ccccc2)cc1)C(N)=O` [RXL-3005, His-Aib-Glu-Gly-Thr-Phe(2-F)-Ala-Ser-Asp-Bip-Bip-NH2] (H-H[Aib]EGT[Phe(2-F)]ASD[Bip][Bip]-NH2) were, in that order, 102%, 21.4 nM and 7.32.
The like results for `C[C@H](NC(=O)[C@@H](NC(=O)[C@H](Cc1ccccc1F)NC(=O)[C@@H](NC(=O)CNC(=O)[C@H](CCC(=O)O)NC(=O)C(C)(C)NC(=O)[C@@H](N)Cc1c[nH]cn1)[C@@H](C)O)[C@@H](C)O)C(=O)N[C@@H](CC(=O)O)C(=O)N[C@@H](Cc1ccc(-c2ccccc2)cc1)C(=O)N[C@@H](Cc1ccc(-c2ccccc2)cc1)C(N)=O` [RXL-3006, His-Aib-Glu-Gly-Thr-Phe(2-F)-Thr-Ala-Asp-Bip-Bip-NH2] (H-H[Aib]EGT[Phe(2-F)]TAD[Bip][Bip]-NH2) were, in that order, 120%, 1.91 nM and 8.07.
On the same counts, the results for `C[C@H](NC(=O)[C@H](CO)NC(=O)[C@@H](NC(=O)[C@H](Cc1ccccc1F)NC(=O)[C@@H](NC(=O)CNC(=O)[C@H](CCC(=O)O)NC(=O)C(C)(C)NC(=O)[C@@H](N)Cc1c[nH]cn1)[C@@H](C)O)[C@@H](C)O)C(=O)N[C@@H](Cc1ccc(-c2ccccc2)cc1)C(=O)N[C@@H](Cc1ccc(-c2ccccc2)cc1)C(N)=O` [RXL-3007, His-Aib-Glu-Gly-Thr-Phe(2-F)-Thr-Ser-Ala-Bip-Bip-NH2] (H-H[Aib]EGT[Phe(2-F)]TSA[Bip][Bip]-NH2) are 132%, 4.79 nM and 7.85.
Consider `C[C@H](NC(=O)[C@H](CC(=O)O)NC(=O)[C@H](CO)NC(=O)[C@@H](NC(=O)[C@H](Cc1ccccc1F)NC(=O)[C@@H](NC(=O)CNC(=O)[C@H](CCC(=O)O)NC(=O)C(C)(C)NC(=O)[C@@H](N)Cc1c[nH]cn1)[C@@H](C)O)[C@@H](C)O)C(=O)N[C@@H](Cc1ccc(-c2ccccc2)cc1)C(N)=O` [RXL-3008, His-Aib-Glu-Gly-Thr-Phe(2-F)-Thr-Ser-Asp-Ala-Bip-NH2] (H-H[Aib]EGT[Phe(2-F)]TSDA[Bip]-NH2), for which the “decreased potency by Ala substitution in RXL-3000” value was above 1000 fold, the Emax was 43.6% and the “decreased potency (Aib/Ala comparison)” value is > 10,000 fold. Moreover, the pEC50 under setting [2] is below 6.00.
Regarding `C[C@H](NC(=O)[C@H](Cc1ccc(-c2ccccc2)cc1)NC(=O)[C@H](CC(=O)O)NC(=O)[C@H](CO)NC(=O)[C@@H](NC(=O)[C@H](Cc1ccccc1F)NC(=O)[C@@H](NC(=O)CNC(=O)[C@H](CCC(=O)O)NC(=O)C(C)(C)NC(=O)[C@@H](N)Cc1c[nH]cn1)[C@@H](C)O)[C@@H](C)O)C(N)=O` [RXL-3009, His-Aib-Glu-Gly-Thr-Phe(2-F)-Thr-Ser-Asp-Bip-Ala-NH2], the “decreased potency by Ala substitution in RXL-3000” value is recorded as above 1000 fold, the Emax came to 43.2% and the “decreased potency (Aib/Ala comparison)” value was 10,000 fold. The pEC50 under setting [2] is below 6.00.
For `C[C@@H](O)[C@H](NC(=O)CNC(=O)[C@H](CCC(=O)O)NC(=O)C(C)(C)NC(=O)[C@@H](N)Cc1c[nH]cn1)C(=O)N[C@@H](Cc1ccccc1Br)C(=O)N[C@H](C(=O)N[C@@H](CO)C(=O)N[C@@H](CC(=O)O)C(=O)N[C@@H](Cc1ccc(-c2ccccc2)cc1)C(=O)N[C@@H](Cc1ccc(-c2ccccc2)cc1)C(N)=O)[C@@H](C)O` [RXL-3010, His-Aib-Glu-Gly-Thr-Phe(2-Br)-Thr-Ser-Asp-Bip-Bip-NH2], the Emax is 121%. The pEC50 under setting [1] was 8.41.
The like results for `C[C@@H](O)[C@H](NC(=O)CNC(=O)[C@H](CCC(=O)O)NC(=O)C(C)(C)NC(=O)[C@@H](N)Cc1c[nH]cn1)C(=O)N[C@@H](Cc1ccccc1Cl)C(=O)N[C@H](C(=O)N[C@@H](CO)C(=O)N[C@@H](CC(=O)O)C(=O)N[C@@H](Cc1ccc(-c2ccccc2)cc1)C(=O)N[C@@H](Cc1ccc(-c2ccccc2)cc1)C(N)=O)[C@@H](C)O` [RXL-3011, His-Aib-Glu-Gly-Thr-Phe(2-Cl)-Thr-Ser-Asp-Bip-Bip-NH2] were, in that order, 91.3% and 9.05.
